# Data published in patent US20240132484A1, “BROAD SPECTRUM ANTIVIRAL COMPOUNDS TARGETING THE SKI COMPLEX” (priority 2020, published 2024).
# Where “and” joins values, the source holds several entries; their conditions need not be identical. Identical values can stand only once. Like-named read-outs stand apart in the source and are kept apart here.
# Tests used:
# Influenza virus = experiment: organism not typed; assay type: cell-based, influenza A virus; conditions: for Flu titer (pfu/ml) / Influenza virus titer, 10 μM / Influenza virus titer, 50 μM: plaque assay; for Avg PFU/ml: average of first and second experiment; for Influenza virus titer, 10 μM / Influenza virus titer, 50 μM: upper part of table (FIG. 5 data)
# cells (nuclei count) = conditions: for Toxicity Data, Average, Mean: average of Exp 1-3 (SMW475, SMW477, SMW478)
# SARS2 = assay type: cell-based, SARS-CoV-2; conditions: for Infection Data, Average, Mean: average of Exp 1-3 (SMW475, SMW477, SMW478)
smiles,measurement,setting,value
"COc1cc(CNCCC2CCN(C)CC2)ccc1OCC(O)CN(C)C1CCCCC1 (stereo not drawn) [Compound 28236358, 1-[cyclohexyl(methyl)amino]-3-[2-methoxy-4-({[2-(1-methyl-4-piperidinyl)ethyl]amino}methyl)phenoxy]-2-propanol]",Flu titer (pfu/ml),"Influenza virus; 1 μM compound, A549 cells",70000 pfu/ml
same,Flu titer (pfu/ml),"Influenza virus; 10 μM compound, A549 cells",70000 pfu/ml
same,Flu titer (pfu/ml),"Influenza virus; 50 μM compound, A549 cells",39000 pfu/ml
COc1ccc(CNC2CCCCCCC2)c(OCC(O)CN2CCN(C)CC2)c1 (stereo not drawn) [Compound 18-8],first experiment,Influenza virus; 10 μM screen,3000 PFU/ml
same,second experiment,Influenza virus; 10 μM screen,700 PFU/ml
same,Avg PFU/ml,Influenza virus; 10 μM screen,1850 PFU/ml
same,"Influenza virus titer, 10 μM",Influenza virus,3000 PFU/virus/ml
same,first experiment PFU/ml,Influenza virus; 50 μM screen,3800 PFU/ml
same,second experiment PFU/ml,Influenza virus; 50 μM screen,200 PFU/ml
same,Avg PFU/ml,Influenza virus; 50 μM screen,2000 PFU/ml
same,"Influenza virus titer, 50 μM",Influenza virus,38000 PFU/virus/ml
COc1ccc(CNCCc2ccccc2C)c(OCC(O)CN2CCN(C)CC2)c1 (stereo not drawn) [UMB40],antiviral activity against IAV infection,"Influenza virus; screening, A549 cells",showed a degree of antiviral activity
"COc1ccc(CNCCc2ccccc2F)c(OCC(O)CN2CCN(C)CC2)c1 (stereo not drawn) [Compound 96509034, 1-[2-({[2-(2-fluorophenyl)ethyl]amino}methyl)-5-methoxyphenoxy]-3-(4-methyl-1-piperazinyl)-2-propanol]",Flu titer (pfu/ml),"Influenza virus; 1 μM compound, A549 cells",10000 pfu/ml
same,Flu titer (pfu/ml),"Influenza virus; 10 μM compound, A549 cells",4000 pfu/ml
same,Flu titer (pfu/ml),"Influenza virus; 50 μM compound, A549 cells",5000 pfu/ml
COc1ccc(CNCCc2ccccc2)c(OCC(O)CN2CCN(C)CC2)c1 (stereo not drawn) [Compound 18-6],first experiment,Influenza virus; 10 μM screen,10000 PFU/ml
same,second experiment,Influenza virus; 10 μM screen,500 PFU/ml
same,Avg PFU/ml,Influenza virus; 10 μM screen,5250 PFU/ml
same,"Influenza virus titer, 10 μM",Influenza virus,10000 PFU/virus/ml
same,first experiment PFU/ml,Influenza virus; 50 μM screen,1300 PFU/ml
same,second experiment PFU/ml,Influenza virus; 50 μM screen,300 PFU/ml
same,Avg PFU/ml,Influenza virus; 50 μM screen,800 PFU/ml
same,"Influenza virus titer, 50 μM",Influenza virus,1300 PFU/virus/ml
"CCN(CC)CCNCc1ccccc1OCC(O)CN1CCSCC1 (stereo not drawn) [Compound 86006211, 1-[2-({[2-(diethylamino)ethyl]amino}methyl)phenoxy]-3-(4-thiomorpholinyl)-2-propanol]",Flu titer (pfu/ml),"Influenza virus; 1 μM compound, A549 cells",70000 pfu/ml
same,Flu titer (pfu/ml),"Influenza virus; 10 μM compound, A549 cells",60000 pfu/ml
same,Flu titer (pfu/ml),"Influenza virus; 50 μM compound, A549 cells",12000 pfu/ml
COC(=O)c1csc(CN(CCN(C)C)Cc2ccsc2)c1 [SILCS31],"Relative cell count to DMSO controls, Average 1 μM","cells (nuclei count); 1 μM, toxicity data, 100=DMSO control",113.44
same,"Relative cell count to DMSO controls, Average 5 μM","cells (nuclei count); 5 μM, toxicity data, 100=DMSO control",114.77
same,"Relative cell count to DMSO controls, Average 10 μM","cells (nuclei count); 10 μM, toxicity data, 100=DMSO control",109.5
same,"Relative cell count to DMSO controls, Average 25 μM","cells (nuclei count); 25 μM, toxicity data, 100=DMSO control",102.57
same,"Relative cell count to DMSO controls, Average 50 μM","cells (nuclei count); 50 μM, toxicity data, 100=DMSO control",96.45
same,"Toxicity Data, Average, Mean","cells (nuclei count); n 9, 1 uM",113.44%
same,"Toxicity Data, Average, Mean","cells (nuclei count); n 9, 5 uM",114.77%
same,"Toxicity Data, Average, Mean","cells (nuclei count); n 9, 10 uM",109.50%
same,"Toxicity Data, Average, Mean","cells (nuclei count); n 9, 25 uM",102.57%
same,"Toxicity Data, Average, Mean","cells (nuclei count); n 9, 50 uM",96.45%
same,"Relative cell count to DMSO controls, Average (for correlation analysis)",cells (nuclei count); average value over the 5 tested concentrations (1 to 50 uM),107.35
same,SARS2 antiviral activity,SARS2,decrease in activity
same,Percentage Infection Relative to Appropriate DMSO Control with Avg Background Subtraction,"SARS2; Exp 1 (SMW475), 1 uM, single well",89.46% and 114.99% and 104.36%
same,Percentage Infection Relative to Appropriate DMSO Control with Avg Background Subtraction,"SARS2; Exp 1 (SMW475), 5 uM, single well",96.46% and 105.10% and 110.06%
same,Percentage Infection Relative to Appropriate DMSO Control with Avg Background Subtraction,"SARS2; Exp 1 (SMW475), 10 uM, single well",122.44% and 140.70% and 131.42%
same,Percentage Infection Relative to Appropriate DMSO Control with Avg Background Subtraction,"SARS2; Exp 1 (SMW475), 25 uM, single well",64.20% and 68.29% and 61.79%
same,Percentage Infection Relative to Appropriate DMSO Control with Avg Background Subtraction,"SARS2; Exp 1 (SMW475), 50 uM, single well",27.95% and 23.70% and 21.94%
same,Percentage Infection Relative to Appropriate DMSO Control with Avg Background Subtraction,"SARS2; Exp 2 (SMW477), 1 uM, single well",99.50% and 100.31% and 97.32%
same,Percentage Infection Relative to Appropriate DMSO Control with Avg Background Subtraction,"SARS2; Exp 2 (SMW477), 5 uM, single well",126.44% and 106.51% and 105.32%
same,Percentage Infection Relative to Appropriate DMSO Control with Avg Background Subtraction,"SARS2; Exp 2 (SMW477), 10 uM, single well",115.31% and 105.13% and 102.55%
same,Percentage Infection Relative to Appropriate DMSO Control with Avg Background Subtraction,"SARS2; Exp 2 (SMW477), 25 uM, single well",73.95% and 82.92% and 76.95%
same,Percentage Infection Relative to Appropriate DMSO Control with Avg Background Subtraction,"SARS2; Exp 2 (SMW477), 50 uM, single well",19.41% and 19.72% and 23.27%
same,Percentage Infection Relative to Appropriate DMSO Control with Avg Background Subtraction,"SARS2; Exp 3 (SMW478), 1 uM, Greiner Celigo plates",90.68% and 87.75% and 89.34%
same,Percentage Infection Relative to Appropriate DMSO Control with Avg Background Subtraction,"SARS2; Exp 3 (SMW478), 5 uM, Greiner Celigo plates",64.83% and 79.11% and 61.06%
same,Percentage Infection Relative to Appropriate DMSO Control with Avg Background Subtraction,"SARS2; Exp 3 (SMW478), 10 uM, Greiner Celigo plates",63.55% and 89.71% and 51.99%
same,Percentage Infection Relative to Appropriate DMSO Control with Avg Background Subtraction,"SARS2; Exp 3 (SMW478), 25 uM, Greiner Celigo plates",86.74% and 80.23% and 76.86%
same,Percentage Infection Relative to Appropriate DMSO Control with Avg Background Subtraction,"SARS2; Exp 3 (SMW478), 50 uM, Greiner Celigo plates",26.23% and 18.61% and 22.87%
same,Percentage Inhibition Average 1 μM,"SARS2; SARS2, 1 μM",2.92%
same,Screening data (Relative infection to DMSO controls) Average 1 μM,"SARS2; SARS2, 1 μM, 100=DMSO control",97.08
same,Percentage Inhibition Average 5 μM,"SARS2; SARS2, 5 μM",5.01%
same,Screening data (Relative infection to DMSO controls) Average 5 μM,"SARS2; SARS2, 5 μM, 100=DMSO control",94.99
same,Percentage Inhibition Average 10 μM,"SARS2; SARS2, 10 μM",−2.53%
same,Screening data (Relative infection to DMSO controls) Average 10 μM,"SARS2; SARS2, 10 μM, 100=DMSO control",102.53
same,Percentage Inhibition Average 25 μM,"SARS2; SARS2, 25 μM",25.34%
same,Screening data (Relative infection to DMSO controls) Average 25 μM,"SARS2; SARS2, 25 μM, 100=DMSO control",74.66
same,Percentage Inhibition Average 50 μM,"SARS2; SARS2, 50 μM",77.37%
same,Screening data (Relative infection to DMSO controls) Average 50 μM,"SARS2; SARS2, 50 μM, 100=DMSO control",22.63
same,Average (relative infection to DMSO over the 5 tested concentrations),"SARS2; SARS2, average over 1 to 50 uM, 100=DMSO control",78.38
same,"Infection Data, Average, Mean","SARS2; n 9, 1 uM",97.08%
same,"Infection Data, Average, Mean","SARS2; n 9, 5 uM",94.99%
same,"Infection Data, Average, Mean","SARS2; n 9, 10 uM",102.53%
same,"Infection Data, Average, Mean","SARS2; n 9, 25 uM",74.66%
same,"Infection Data, Average, Mean","SARS2; n 9, 50 uM",22.63%
